Values after ≈ are worked out from the molar mass of the structure shown.
Experiments:
[1] = molecular target: T1, Calcineurin (Bos taurus, UniProt P48452); test: Calcineurin phosphatase assay (pNPP); assay type: biochemical, bovine; conditions: for inhibition at 0.5 µg/mL / inhibition at 5 µg/mL: 1 h, read-out: CaN, I; for inhibition at 0.5 µg/mL: at 0.5 μg/ml; for inhibition at 5 µg/mL: at 5 μg/ml; for IC50: pure compound, read-out: CaN, IC50 (converted)
T1 construct: Calcineurin was prepared from bovine brain; from tissue; host or cells: bovine brain
Protocol: Calcineurin activity was assayed in 96-well microtiter plates in a final volume of 50 μl. Each well contained 50 mM Tris-HCI pH 7.5, 0.5 mM MnCl2, 0.05 mM CaCl2, 1 mM DTT, 50 mM p-nitrophenylphosphate (pNPP), 0.3 μg calcineurin, a five-fold excess of calmodulin, and either test samples or control compounds. Plates were incubated at 30° C. for 60 min. Liberated p-nitrophenol was determined by the change in absorbance at 405 nm.

[2] = molecular target: T2, CPP32 (Homo sapiens, UniProt P42574); test: CPP32 enzyme assay; assay type: biochemical
T2 construct: purchased BASF, Worcester, Mass
T2 sequence (P42574 29-175 limits assumed): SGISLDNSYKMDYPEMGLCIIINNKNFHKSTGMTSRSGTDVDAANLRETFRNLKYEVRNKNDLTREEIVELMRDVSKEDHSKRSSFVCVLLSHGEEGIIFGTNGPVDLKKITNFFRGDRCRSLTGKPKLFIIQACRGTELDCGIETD
T2 sequence (P42574 176-277 limits assumed): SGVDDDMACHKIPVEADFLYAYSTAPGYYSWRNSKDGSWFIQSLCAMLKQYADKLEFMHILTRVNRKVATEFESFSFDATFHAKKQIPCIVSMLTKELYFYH
Protocol: (§1) Each of the following assays were performed using either a Tecan 8051 or a Tecan Megaflex automated liquid handling system. Extracts of marine organisms were tested at 5 μg/ml for all assays except DPP IV and LAR which were tested at 50 μg/ml. The inhibition of enzyme activity found in the presence of extract was compared to that of an uninhibited control. Extracts which inhibited the enzyme>50% were retested in triplicate to confirm activity.
Test samples were aliquoted into 96 well microtiter plates and allowed to air dry. The stock CPP32 enzyme (BASF, Worcester, Mass.) was diluted by adding 10 μl of the enzyme to 17 ml of reaction buffer (50 mM Hepes pH 7.5; 10% glyccrol; 5 mM Dithiothreitol; 0.5 mM EDTA). A volume of 180 μl of the diluted enzyme was added to wells containing the dried test samples, or to empty wells (control). The contents of the microtiter wells were mixed by shaking on a plate shaker. Plates were incubated at 30° C. for 5 minutes. […] Controls for each plate consisted of an inhibitor control (50 nM DEVD-CHO final concentration); positive control (enzyme and substrate) and negative control (reaction buffer substrate). The plates were covered with aluminum foil and mixed using a plate shaker for 5 min. then incubated at 30° C. for 30 minutes. Plates were read using a plate reader with absorbance measured at 405 nm. Data was expressed as percent inhibition by comparing the absorbance values of test samples with those of the positive control (no sample).

[3] = molecular target: T3, ICE (Homo sapiens, UniProt P29466); test: ICE enzyme assay; assay type: biochemical
T3 construct: purchased BASF, Worcester, Mass
T3 sequence (P29466 120-297 limits assumed): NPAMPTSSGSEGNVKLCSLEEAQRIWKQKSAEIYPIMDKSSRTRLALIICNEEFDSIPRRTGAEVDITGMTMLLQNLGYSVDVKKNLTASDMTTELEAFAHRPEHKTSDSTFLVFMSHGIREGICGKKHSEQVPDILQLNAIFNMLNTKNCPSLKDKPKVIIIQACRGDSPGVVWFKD
T3 sequence (P29466 317-404 limits assumed): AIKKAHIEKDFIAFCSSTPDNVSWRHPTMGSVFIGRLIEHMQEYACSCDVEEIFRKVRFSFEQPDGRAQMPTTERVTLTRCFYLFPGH
Protocol: as §1
Test samples were aliquoted into 96 well microtiter plates and allowed to air dry. Stock ICE enzyme (supplied by BASF, Worcester, Mass.) was diluted in reaction buffer (50 mM Hepes pH 7.5, 10% glycerol, 5 mM dithiothreitol,0.5 mM EDTA and 5 mM β-mercaptoethanol) to a concentration that yielded a minimum increase of 0.1 optical density units after 30 minutes of reaction time. Diluted ICE enzyme was incubated at room temperature for 5 minutes prior to aliquoting 180 μl into each sample well. The plates were incubated at 30° C. for 5 minutes following a brief mixing of the well contents by shaking on a plate shaker. A volume of 20 μl of the enzyme substrate (Ac-YVAD-pNA) was added to each well resulting in a final concentration of 50 μM. […] Plates were read on a plate reader with absorbance measured at 405 nm. Data was expressed as percent inhibition by comparing the absorbance values of test samples with those of the positive control (no sample).

[4] = system: A549 human lung adenocarcinoma; test: A549 in vitro anti-tumor testing (MTT); assay type: cell-based
Protocol: (§2) P388 cells can be obtained from the National Cancer Institute, Bethesda, Md., and A549 cells can be obtained from American Type Culture Collection, Rockville, Md. All cell lines are maintained in Roswell Park Memorial Institute (RPMI) medium 1640 supplemented with 10% bovine calf serum. All cell lines are cultured in plastic tissue culture flasks and kept in an incubator at 37° C. in humidified air containing 5% CO2. Prior to testing, antibiotic-free stock cultures of each of the cell lines are subcultured to 10^6 cells/ml by dilution in fresh growth medium at 2 to 3 day intervals.
Similar procedures are utilized for A549 cells which require an additional 48 hr exposure prior to MTT addition. Results are expressed as percent inhibition compared to the negative (no drug) control. Positive drug controls are included to monitor drug sensitivity of each of the cell lines. These include varying dilutions of 5-fluorouracil, adriamycin, methotrexate and vinblastine.
(§3) To quantitate the effects on cell proliferation and resulting IC50 values, 75 μl of warm growth media containing 5 mg/ml MTT is added to each well, cultures are returned to the incubator, and left undisturbed for 90 minutes. […]

[5] = system: P388 murine leukemia; test: P388 in vitro anti-tumor testing (MTT); assay type: cell-based; conditions: Mus musculus, 48-hr exposure
Protocol: as §2
To assess the antiproliferative effects of agents against the P388 cell line, 200 μl cultures (96 well tissue culture plates, Nunc, Denmark) are established at 1×10^5 cells/ml in drug-free medium or medium containing the test agent at 10.0, 1.0, 0.10 and 0.010 μg/ml. The solvent for all dilutions is ethanol. All experimental cultures are initiated in medium containing Gentamycin sulfate (50 μg/ml; Schering Corporation, Kenilworth, N.J.). After 48-hr exposure, P388 cells are enumerated using 3-[4,5-Dimethylthiazol-2-yl]-2,5-diphenyltetrazolium bromide (MTT) as described below.
as §3

[6] = system: unstimulated lymphocytes; test: Lymphocyte viability (LCV) testing; assay type: cell-based
From the text: (§4) These assays measure the ability of the extracts/pure compounds to inhibit allogeneic immune responsiveness (MLR) and to affect the viability of unstimulated lymphocytes. These general methods are described in the following: Longley, R. E., D. Caddigan, D. Harmody, M. Gunasekera and S. P. Gunasekera (1991) Transplantation 52: 650-656.

[7] = system: EL-4.IL-2 murine lymphoma cells; test: EL-4 adherence testing; assay type: cell-based
From the text: This assay is based on the properties of extracts/pure compounds which serve as protein kinase C (PKC) active agents to either induce or inhibit the adherence of EL-4.IL-2 murine lymphoma cells to plastic surfaces. The general methodology of this assay is described in detail in the following: Longley, R. E. and D. Harmody (1991) J. Antibiotics 44:93-102.

[8] = molecular target: T4, Aminopeptidase N (CD13) (Homo sapiens, UniProt P15144); test: Aminopeptidase N (CD13) ELISA capture enzyme assay; assay type: biochemical; conditions: 18 h; at 5 μg/ml; read-out: ApN, I
T4 construct: The source of Aminopeptidase N was the KG-1 cell line; endogenous in cells; host or cells: KG-1 cell lysate
Protocol: as §1
Aminopeptidase N was assayed using an Enzyme-Linked Immunosorbant (ELISA) capture assay. Briefly, 96-well plates were coated with goat anti-mouse immunoglobulins (Sigma #M4169). Following an overnight incubation the plates were washed three times with PBS-0.1% Triton X-100. The secondary (capture) antibody was then added to the plate (100 μl/well, 3.7 μg/ml; antihuman MY7, Coulter Corporation) and incubated for 3 hours at room temperature. Plates were washed three times with PBS-0.1% Triton X-100. The source of Aminopeptidase N was the KG-1 cell line, 100 μl of an appropriate dilution of the KG-1 cell lysate was added to each well, incubated for 3 hours and then washed a final time. The enzyme assay was performed in PBS in a final volume of 200 μl with 200 μM ala-pNA as substrate and either test samples or controls. Liberated p-nitroaniline was determined by the change in absorbance at 405 nm following an 18 hr incubation at 37° C.

[9] = system: allogeneic immune responsiveness (MLR); test: Two-way mixed lymphocyte reaction (MLR); assay type: cell-based
From the text: as §4

T4 sequence (P15144 whole entry): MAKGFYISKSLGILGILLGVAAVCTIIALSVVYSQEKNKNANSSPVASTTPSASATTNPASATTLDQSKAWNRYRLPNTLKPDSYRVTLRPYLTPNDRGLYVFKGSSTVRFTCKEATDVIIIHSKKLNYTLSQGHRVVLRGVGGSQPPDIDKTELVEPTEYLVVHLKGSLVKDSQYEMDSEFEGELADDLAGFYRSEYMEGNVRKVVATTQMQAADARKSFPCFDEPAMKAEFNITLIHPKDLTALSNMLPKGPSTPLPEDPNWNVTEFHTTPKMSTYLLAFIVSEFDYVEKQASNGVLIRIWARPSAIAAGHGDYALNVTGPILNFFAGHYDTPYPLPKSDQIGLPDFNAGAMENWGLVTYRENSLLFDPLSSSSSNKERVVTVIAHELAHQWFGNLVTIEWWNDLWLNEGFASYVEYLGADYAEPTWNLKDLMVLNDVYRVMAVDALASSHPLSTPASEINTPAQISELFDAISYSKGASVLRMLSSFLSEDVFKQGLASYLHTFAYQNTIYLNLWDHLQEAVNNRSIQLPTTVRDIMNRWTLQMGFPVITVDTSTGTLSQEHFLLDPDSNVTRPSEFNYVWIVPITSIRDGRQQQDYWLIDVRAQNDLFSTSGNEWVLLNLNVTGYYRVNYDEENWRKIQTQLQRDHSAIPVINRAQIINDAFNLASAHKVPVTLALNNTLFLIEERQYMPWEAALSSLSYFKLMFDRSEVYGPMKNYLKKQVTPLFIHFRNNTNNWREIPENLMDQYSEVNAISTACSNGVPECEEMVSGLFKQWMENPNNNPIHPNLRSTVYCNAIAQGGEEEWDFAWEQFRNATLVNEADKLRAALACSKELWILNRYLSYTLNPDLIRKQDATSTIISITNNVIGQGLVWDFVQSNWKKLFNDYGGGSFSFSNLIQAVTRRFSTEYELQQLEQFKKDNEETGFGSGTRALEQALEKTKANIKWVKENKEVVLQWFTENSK

| Structure (SMILES) | inhibition at 0.5 µg/mL [1] [%] | inhibition at 5 µg/mL [1] [%] | IC50 [1] [µM] | CPP32, IC50 [2] [µg/mL] | inhibition at 0.5 µg/mL ([2]; 0.5 h, pH 7.5, at 0.5 μg/ml, read-out: CPP32, I) [%] | inhibition at 5 µg/mL ([2]; 0.5 h, pH 7.5, at 5 μg/ml, read-out: CPP32, I) [%] | ICE inhibition [3] | IC50 [4] [µg/mL] | IC50 [5] [µg/mL] | IC50 [6] [µg/mL] | EL-4 adherence [7] | inhibition at 5 µg/mL [8] [%] | IC50 [9] [µg/mL] |
| --- | --- | --- | --- | --- | --- | --- | --- | --- | --- | --- | --- | --- | --- |
| N=C1C(Cl)=C(N)C(=O)c2[nH]cc(C(O)CO)c21 (stereo not drawn) [Secobatzelline A, secobatzelline A] | 46 | 75 | 2.15 | 0.02 | 76.2 | 86.5 | not detected | 0.04 | 0.06 | 1.4 (≈ 5.48 µM) | inh. adhesion | 54.9 | 0.68 (≈ 2.66 µM) |
| NC1=C(Cl)C(=O)c2c(C(O)CO)c[nH]c2C1=O (stereo not drawn) [Secobatzelline B, secobatzelline B] | 22 | 43 | 8.61 |  |  |  |  | 2.86 | 1.22 |  |  |  |  |
